For 7 compounds, EC50 and IC50 results are on record in patent US20220306647A1, “NOVEL INDOLE-2-CARBOXAMIDES ACTIVE AGAINST THE HEPATITUS B VIRUS (HBV)” (AICURIS GMBH & CO. KG, priority 2019, published 2022).

The test system of one experiment is HBV (HepAD38 cells). Nature of the experiment: HBV replication assay: determination of HBV DNA from the supernatants of HepAD38 cells. To be noted: Hepatitis B virus, 144 h, HBV DNA in HepAD38 supernatant at day 6, qPCR, read-out: Cell activity. The experiment is classed as cell-based. The essentials:
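HepAD38 cells seeded without tetracycline and treated with half-log compound dilutions; tetracycline-treated wells serve as cell control. On day 6, supernatant HBV DNA was purified and quantified by real-time PCR against plasmid standards; EC50 from non-linear regression of relative copy numbers, three experiments in triplicate.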
On the technique in general: Real-time PCR tracks product formation cycle by cycle.

In experiment [1] the target is T1, HBV core protein (C-terminal truncated core protein, 149 amino acids of the N-terminal assembly domain, BODIPY-FL labelled) (UniProt P03146).
T1 construct: fused on or other part: A single cysteine added after residue 149, at position 150; It carries the BODIPY-FL maleimide label
T1 sequence (P03146 whole entry, the tested form may be a part): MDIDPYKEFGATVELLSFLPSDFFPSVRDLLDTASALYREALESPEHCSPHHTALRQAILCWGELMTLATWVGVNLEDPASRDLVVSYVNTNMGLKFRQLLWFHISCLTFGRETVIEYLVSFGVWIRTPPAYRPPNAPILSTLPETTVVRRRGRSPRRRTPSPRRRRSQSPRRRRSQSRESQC
Description: Biochemical capsid assembly assay (fluorescence quenching). The essentials: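 Fluorescence quenching of BODIPY-FL-labelled core dimers (1.0 to 2.0 μM) in 50 mM HEPES pH 7.5; compounds at 8 concentrations, 0.5 log-unit dilutions from top 100, 31.6 or 10 μM, 0.5% DMSO. Assembly started with NaCl to […]; fluorescence (ex 477/em 525 nm) read after 6 min. EC50 by non-linear regression.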

[2] abbreviates: assembly started with NaCl, fluorescence read after 6 min, read-out: Assembly activity.

Where two headings read alike, the source gives them in different places.

For the compound `C[C@@H](NC(=O)c1noc2c1CN(C(=O)c1cc3c(Cl)cccc3[nH]1)CC2)C(F)(F)F` [Example 104, 5-(4-chloro-1H-indole-2-carbonyl)-N-[(2R)-1,1,1-trifluoropropan-2-yl]-4H,5H,6H,7H-[1,2]oxazolo[4,5-c]pyridine-3-carboxamide], the EC50 with HBV (HepAD38 cells) is under 1 µM. The IC50 in experiment [1] (setting [2]) is under 5 µM.
Take `C[C@@H](NC(=O)c1noc2c1CN(C(=O)c1cc3c(F)c(F)ccc3[nH]1)CC2)C(F)(F)F` [Example 105, 5-(4,5-difluoro-1H-indole-2-carbonyl)-N-[(2R)-1,1,1-trifluoropropan-2-yl]-4H,5H,6H,7H-[1,2]oxazolo[4,5-c]pyridine-3-carboxamide]: the EC50 in the experiment with HBV (HepAD38 cells) is under 1 µM. For the same compound, the IC50 in experiment [1] (setting [2]) is under 5 µM.
In the same order, the values of `Cc1c(F)ccc2[nH]c(C(=O)N3CCc4onc(C(=O)N[C@H](C)C(F)(F)F)c4C3)cc12` [Example 106, 5-(5-fluoro-4-methyl-1H-indole-2-carbonyl)-N-[(2R)-1,1,1-trifluoropropan-2-yl]-4H,5H,6H,7H-[1,2]oxazolo[4,5-c]pyridine-3-carboxamide] are under 1 µM and under 5 µM.
With `Cc1cc(F)cc2[nH]c(C(=O)N3CCc4onc(C(=O)N[C@H](C)C(F)(F)F)c4C3)cc12` [Example 107, 5-(6-fluoro-4-methyl-1H-indole-2-carbonyl)-N-[(2R)-1,1,1-trifluoropropan-2-yl]-4H,5H,6H,7H-[1,2]oxazolo[4,5-c]pyridine-3-carboxamide], in the experiment with HBV (HepAD38 cells), the EC50 was under 1 µM. Moreover, the IC50 in experiment [1] (setting [2]) is under 5 µM.
With `CN(C(=O)c1noc2c1CN(C(=O)c1cc3ccccc3[nH]1)CC2)C1([C@H]2OC[C@H](N)CO2)CC1` [Example 108, 5-(1H-indole-2-carbonyl)-N-methyl-N-{1-[(2r,5r)-5-amino-1,3-dioxan-2-yl]cyclopropyl}-4H,5H,6H,7H-[1,2]oxazolo[4,5-c]pyridine-3-carboxamide], in the experiment on HBV (HepAD38 cells), the EC50 is under 1 µM. In addition, the IC50 in experiment [1] (setting [2]) was under 5 µM.
The corresponding values for `CN(C(=O)c1onc2c1CN(C(=O)c1cc3ccccc3[nH]1)CC2)C1(c2ccc(C(=O)O)cc2)CC1` [Example 109, 4-{1-[N-methyl-5-(1H-indole-2-carbonyl)-4H,5H,6H,7H-[1,2]oxazolo[4,3-c]pyridine-3-amido]cyclopropyl}benzoic acid] are under 1 µM and under 5 µM.
Turning to `CN(C(=O)c1cnn2c1CN(C(=O)c1cc3c(Cl)c(F)c(Cl)cc3[nH]1)CC2)C1(c2ccc(C(=O)O)cc2)CC1` [Example 110, 4-{1-[N-methyl-5-(4,6-dichloro-5-fluoro-1H-indole-2-carbonyl)-4H,5H,6H,7H-pyrazolo [1,5-a]pyrazine-3-amido]cyclopropyl}benzoic acid], the EC50 with HBV (HepAD38 cells) was under 1 µM. In experiment [1] (read-out: Assembly activity, assembly started with NaCl, fluorescence read after 6 min), the IC50 was under 5 µM.
